Biological target: Human plasma kallikrein (Homo sapiens (Human), UniProt P03952)
Experiment: In vitro plasma kallikrein inhibition assay (chromogenic substrate D-Pro-Phe-Arg-pNa, absorbance at 405 nm, IC50 determination)
Type: biochemical
Details: read-out: KLKB1 pIC50 (converted)

Human plasma kallikrein, sequence (P03952 391-638): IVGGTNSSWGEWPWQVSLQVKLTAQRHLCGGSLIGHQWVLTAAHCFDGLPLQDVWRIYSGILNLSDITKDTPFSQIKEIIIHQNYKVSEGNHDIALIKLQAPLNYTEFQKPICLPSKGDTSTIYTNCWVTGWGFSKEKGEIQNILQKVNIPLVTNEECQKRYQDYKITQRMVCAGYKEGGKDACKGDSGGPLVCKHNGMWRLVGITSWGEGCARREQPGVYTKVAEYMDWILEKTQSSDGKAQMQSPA
Human plasma kallikrein, sequence (P03952 20-390 partner): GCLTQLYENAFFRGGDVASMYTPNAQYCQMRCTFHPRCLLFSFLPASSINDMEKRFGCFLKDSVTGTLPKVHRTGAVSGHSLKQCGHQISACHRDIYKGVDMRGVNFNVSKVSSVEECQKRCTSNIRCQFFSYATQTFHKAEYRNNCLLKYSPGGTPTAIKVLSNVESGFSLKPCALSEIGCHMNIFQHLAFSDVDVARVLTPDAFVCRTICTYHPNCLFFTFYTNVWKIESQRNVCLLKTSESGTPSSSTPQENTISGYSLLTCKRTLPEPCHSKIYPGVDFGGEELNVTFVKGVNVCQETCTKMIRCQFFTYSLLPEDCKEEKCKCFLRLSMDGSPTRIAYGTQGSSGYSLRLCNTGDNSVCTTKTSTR

IC50 [nM]	Structure (SMILES)
1	Cc1cc(N)nc(C)c1CNC(=O)c1ccc2c(c1)[C@@H]1O[C@H]2c2ccc(Cn3cc(F)cn3)cc21 (single isomer, unassigned) [Example 178]
1	Cc1cc(N)nc(C)c1CNC(=O)c1ccc2c(c1)[C@@H]1O[C@H]2c2ccc(Cn3cc(Cl)cn3)cc21 (single isomer, unassigned) [Example 179]
12	CCc1cc(N)nc(C)c1CNC(=O)c1ccc2c(c1)[C@@H]1O[C@H]2c2ccc(-c3ccc(F)cc3F)cc21 (single isomer, unassigned) [Example 183]
75.9	Cc1cc(N)nc(C)c1CNC(=O)c1ccc2c(c1)[C@@H]1O[C@H]2c2cc(Oc3cccc(F)c3)ccc21 (single isomer, unassigned) [Example 184]
2240	Cc1cc(N)nc(C)c1CNC(=O)c1ccc2c(c1)[C@@H]1O[C@H]2c2ccc(Oc3ccn(C)n3)cc21 (single isomer, unassigned) [Example 185]
1820	Cc1cc(N)nc(C)c1CNC(=O)c1ccc2c(c1)[C@@H]1O[C@H]2c2ccc(-n3c(=O)ccn3C)cc21 (single isomer, unassigned) [Example 186]
1.74	N=C(N)c1ccc(CNC(=O)c2ccc3c(c2)[C@@H]2O[C@H]3c3ccc(-c4ccccc4F)cc32)cc1 (single isomer, unassigned) [Example 187]
105	Cc1cc(N)nc(C)c1CNC(=O)c1ccc2c(c1)[C@@H]1O[C@H]2c2ccc(Oc3cccc(F)c3)cc21 (single isomer, unassigned) [Example 191]
977	Cc1nc(N)cc(Cl)c1CNC(=O)c1ccc2c(c1)[C@@H]1O[C@H]2c2ccc(-c3ccc(F)cc3F)cc21 (single isomer, unassigned) [Example 192]
1580	Cc1cc(N)nc(C)c1CNC(=O)c1ccc2c(c1)[C@@H]1O[C@H]2c2ccc(C(=O)N3CC4CCC(C3)O4)cc21 (single isomer, unassigned) [Example 193]
1660	Cc1cc(N)nc(C)c1CNC(=O)c1ccc2c(c1)[C@@H]1O[C@H]2c2ccc(C(=O)N(C)c3ccccc3)cc21 (single isomer, unassigned) [Example 194]
1050	Cc1cc(N)nc(C)c1CNC(=O)c1ccc2c(c1)[C@@H]1O[C@H]2c2ccc(-c3cccc[n+]3[O-])cc21 (single isomer, unassigned) [Example 195]
4680	Cc1cc(N)nc(C)c1CNC(=O)c1ccc2c(c1)[C@@H]1O[C@H]2c2ccc(C(=O)N(C)c3ccc(F)cc3)cc21 (single isomer, unassigned) [Example 196]
0.741	Cc1cc(C(=N)N)cc(C)c1CNC(=O)c1ccc2c(c1)[C@@H]1O[C@H]2c2ccc(-c3ccc(F)cc3F)cc21 (single isomer, unassigned) [Example 199]
1	N=C(N)c1ccc(CNC(=O)c2ccc3c(c2)[C@@H]2O[C@H]3c3ccc(-c4ccc(F)cc4)cc32)cc1 (single isomer, unassigned) [Example 201]
1000	Nc1noc2cc(CNC(=O)c3ccc4c(c3)[C@@H]3O[C@H]4c4ccc(-c5ccc(F)cc5F)cc43)ccc12 (single isomer, unassigned) [Example 205]
37.2	N=C(N)c1ccc(CNC(=O)c2ccc3c(c2)[C@@H]2O[C@H]3c3ccc(Br)cc32)cc1 (single isomer, unassigned) [Example 206]
4900	Nc1n[nH]c2cc(CNC(=O)c3ccc4c(c3)[C@@H]3O[C@H]4c4ccc(-c5ccc(F)cc5F)cc43)ccc12 (single isomer, unassigned) [Example 207]
1	Cc1nc(N)cc(C(C)C)c1CNC(=O)c1ccc2c(c1)[C@@H]1O[C@H]2c2ccc(-c3ccc(F)cc3F)cc21 (single isomer, unassigned) [Example 208]
11.7	N=C(N)c1ccc(CNC(=O)c2ccc3c(c2)[C@@H]2O[C@H]3c3ccc(-c4ccc(F)cc4F)cc32)cc1F (single isomer, unassigned) [Example 211]
70.8	Cc1cc(N)nc(C)c1CNC(=O)c1ccc2c(c1)[C@@H]1O[C@H]2c2ccc(-c3cccnc3C)cc21 (single isomer, unassigned) [Example 212]
676	COc1ncccc1-c1ccc2c(c1)[C@H]1O[C@@H]2c2ccc(C(=O)NCc3c(C)cc(N)nc3C)cc21 (single isomer, unassigned) [Example 213]
83.2	Cc1cc(N)nc(C)c1CNC(=O)c1ccc2c(c1)[C@@H]1O[C@H]2c2ccc(-c3ccc(F)c[n+]3[O-])cc21 (single isomer, unassigned) [Example 214]
79.4	Cc1ccncc1-c1ccc2c(c1)[C@H]1O[C@@H]2c2ccc(C(=O)NCc3c(C)cc(N)nc3C)cc21 (single isomer, unassigned) [Example 215]
15.8	Cc1ccc(-c2ccc3c(c2)[C@H]2O[C@@H]3c3ccc(C(=O)NCc4cccc5c(N)nccc45)cc32)c(C#N)c1 (single isomer, unassigned) [Example 216]
2	N=C(N)c1ccc(CNC(=O)c2ccc3c(c2)[C@@H]2O[C@H]3c3ccc(-c4ccc(Cl)s4)cc32)cc1 (single isomer, unassigned) [Example 217]

IC50 [nM]	Structure (SMILES)
26.9	Cc1cc(N)nc(C)c1CNC(=O)c1ccc2c(c1)[C@@H]1O[C@H]2c2ccc(N(C)c3cccc(F)c3)cc21 (single isomer, unassigned) [Example 218]
17	C=Cc1cc(N)nc(C)c1CNC(=O)c1ccc2c(c1)[C@@H]1O[C@H]2c2ccc(-c3ccc(F)cc3F)cc21 (single isomer, unassigned) [Example 219]
12	Cc1cc(N)nc(C)c1CNC(=O)c1ccc2c(c1)[C@@H]1O[C@H]2c2ccc(C(=O)c3ccccc3)cc21 (single isomer, unassigned) [Example 220]
10000	N=C(NC(=O)c1ccc2c(c1)[C@@H]1O[C@H]2c2ccc(-c3ccc(F)cc3F)cc21)c1ccc(N)cc1 (single isomer, unassigned) [Example 221]
28.2	Cc1nc(N)cc(C2=CCOCC2)c1CNC(=O)c1ccc2c(c1)[C@@H]1O[C@H]2c2ccc(-c3ccc(F)cc3F)cc21 (single isomer, unassigned) [Example 222]
33.9	Cc1ccc(-c2ccc3c(c2)[C@H]2O[C@@H]3c3ccc(C(=O)NCc4ccc(C(=N)N)cc4)cc32)o1 (single isomer, unassigned) [Example 223]
1	Cc1cc(N)nc(C)c1CNC(=O)c1ccc2c(c1)[C@@H]1O[C@H]2c2ccc(Cn3ccccc3=O)cc21 (single isomer, unassigned) [Example 224]
36.3	Nc1nccc2c(CNC(=O)c3ccc4c(c3)[C@@H]3O[C@H]4c4ccc(C(=O)c5ccccc5)cc43)cccc12 (single isomer, unassigned) [Example 226]
12	C=C(C)c1cc(N)nc(C)c1CNC(=O)c1ccc2c(c1)[C@@H]1O[C@H]2c2ccc(-c3ccc(F)cc3F)cc21 (single isomer, unassigned) [Example 227]
12	Cc1cc(N)nc(C)c1CNC(=O)c1ccc2c(c1)[C@@H]1O[C@H]2c2ccc(C(=O)c3cccc(F)c3)cc21 (single isomer, unassigned) [Example 228]
10000	Cc1cc(N)nc(C)c1CNC(=O)c1ccc2c(c1)[C@@H]1O[C@H]2c2ccc(NC(=O)c3ccccc3)cc21 (single isomer, unassigned) [Example 229]
12	CCN(c1cccc(F)c1)c1ccc2c(c1)[C@H]1O[C@@H]2c2ccc(C(=O)NCc3c(C)cc(N)nc3C)cc21 (single isomer, unassigned) [Example 230]
38.9	N=C(N)c1ccc(CNC(=O)c2ccc3c(c2)[C@@H]2O[C@H]3c3ccc(N4CC5CCC(C4)O5)cc32)cc1 (single isomer, unassigned) [Example 232]
7.08	CCc1ccc2c(c1)[C@H]1O[C@@H]2c2ccc(C(=O)NCc3ccc(C(=N)N)cc3)cc21 (single isomer, unassigned) [Example 233]
10000	CCN(C(=O)c1ccccc1)c1ccc2c(c1)[C@H]1O[C@@H]2c2ccc(C(=O)NCc3c(C)cc(N)nc3C)cc21 (single isomer, unassigned) [Example 234]
12.9	Cc1cc(N)nc(C)c1CNC(=O)c1ccc2c(c1)[C@@H]1O[C@H]2c2ccc(CN3CCCN(C)C3=O)cc21 (single isomer, unassigned) [Example 235]
2	N=C(N)c1ccc(CNC(=O)c2ccc3c(c2)[C@@H]2O[C@H]3c3ccc(N4CCCC4)cc32)cc1 (single isomer, unassigned) [Example 236]
10000	Nc1noc2c(CNC(=O)c3ccc4c(c3)[C@@H]3O[C@H]4c4ccc(-c5ccccc5F)cc43)cccc12 (single isomer, unassigned) [Example 237]
324	N=C(N)c1ccc(CNC(=O)c2ccc3c(c2)[C@@H]2O[C@H]3c3ccccc32)cc1 (single isomer, unassigned) [Example 238]
234	CCN(c1ccc2c(c1)[C@H]1O[C@@H]2c2ccc(C(=O)NCc3c(C)cc(N)nc3C)cc21)c1ccccc1F (single isomer, unassigned) [Example 239]
2750	Cc1c(CNC(=O)c2ccc3c(c2)[C@@H]2O[C@H]3c3ccc(-c4ccccc4F)cc32)cnc(N)c1C (single isomer, unassigned) [Example 242]
10700	N=C(N)c1ccc(NC(=O)c2ccc3c(c2)[C@@H]2O[C@H]3c3ccc(-c4ccc(F)cc4F)cc32)cc1 (single isomer, unassigned) [Example 244]
10000	Nc1noc2ccc(NC(=O)c3ccc4c(c3)[C@@H]3O[C@H]4c4ccc(-c5ccc(F)cc5F)cc43)cc12 (single isomer, unassigned) [Example 245]
10700	Cc1nc(N)cc(C(F)(F)F)c1CNC(=O)c1ccc2c(c1)[C@@H]1O[C@H]2c2ccc(-c3ccc(F)cc3F)cc21 (single isomer, unassigned) [Example 246]
5.01	Cc1nc(N)cc(C2CCOCC2)c1CNC(=O)c1ccc2c(c1)[C@@H]1O[C@H]2c2ccc(-c3ccc(F)cc3F)cc21 (single isomer, unassigned) [Example 247]

Structure (SMILES)	IC50 [nM]
N=C(N)c1ccc(CNC(=O)c2ccc3c(c2)[C@@H]2O[C@H]3c3ccc(Oc4cccc(F)c4)cc32)cc1 (single isomer, unassigned) [Example 231]	33.9

— patent publication US10144746B2 (GLOBAL BLOOD THERAPEUTICS, INC., priority 2015, dated 2018)
